According to PubChem BioAssay (NCI):
Where “and” joins values, the source holds several entries; their conditions need not be identical. Equal values may be shown once.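 Step 1: Grow cells in 96-well plates. Step 2: Expose to compound for 48 hours at 5 concentrations. Step 3: Interpolate endpoints linearly; if unreached, use highest concentration. GI50: concentration for 50% inhibition of growth. TGI: total growth inhibition.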

Assays:
Experiment in all cases: DTP human tumour cell line panel, 48 h
[1] = tested on: A549 NSCLC
[2] = tested on: COLO 205 colon
[3] = tested on: HCT-15 colon
[4] = tested on: HOP-92 NSCLC
[5] = tested on: M14 melanoma
[6] = tested on: NCI/ADR-RES ovarian
[7] = tested on: SF-268 CNS
[8] = tested on: SF-295 CNS
[9] = tested on: SK-MEL-28 melanoma
[10] = tested on: SW-620 colon

Compound | GI50 [1] | TGI [1] | GI50 [2] | TGI [2] | GI50 [3] | TGI [3] | GI50 [4] | TGI [4] | GI50 [5] | TGI [5] | GI50 [6] | TGI [6] | GI50 [7] | TGI [7] | GI50 [8] | TGI [8] | GI50 [9] | TGI [9] | GI50 [10] | TGI [10]
COC(=O)c1c2c(c(C)[n+]([O-])c1C)C(=O)C=C(NCc1ccc(F)c(Cl)c1)C2=O | 0.352 µM | 1.95 µM | 0.245 µM | 0.863 µM | 0.0855 µM | 1.63 µM | 1.69 µM | 3.84 µM | 0.117 µM | 1.45 µM | 0.265 µM | 1.63 µM | 1.01 µM | 2.81 µM | 0.231 µM | 1.48 µM | 0.411 µM | 2.15 µM | 0.112 µM | 1.32 µM
COc1ccc(/C=C/C(=O)c2ccc(SC)cc2)cc1OC | 15.8 µM | 42.7 µM | 21 µM | > 100 µM | 3.1 µM | 13.3 µM | 13.7 µM | 31.2 µM | 3.83 µM | 14.2 µM | 10.9 µM | 27.3 µM | 22.3 µM | 63.8 µM | 6.47 µM | 40.2 µM | 18.2 µM | 39.8 µM | 4.44 µM | > 100 µM
COc1cc2c3c(n(CCCN)c(=O)c2cc1OC)-c1cc2c(cc1/C3=C\CCN)OCO2 | 3.19 µM | > 30.3 µM | 4.34 µM | 33.5 µM | 27 µM | > 100 µM | 3.69 µM | > 49.4 µM | 12.3 µM | 35.7 µM | > 96.1 µM | > 100 µM | 0.993 µM | 6.89 µM | 3.33 µM | – | 2.15 µM | 9.67 µM | 3.56 µM | > 66.2 µM
N[C@@H]1CCCC[C@H]1N.O=C([O-])C(=O)[O-].[Pt+4] | 0.615 µM | > 84.1 µM | 7.73 µM | > 74.8 µM | 0.646 µM | > 64.9 µM | 25.5 µM | > 74 µM | 7.22 µM | 45.1 µM | 0.0318 µM | 30.4 µM | 4.12 µM | > 100 µM | 4.71 µM | > 100 µM | 2.63 µM | 24.2 µM | 0.0468 µM | > 83.7 µM
COc1c(OC)c(OC)c2c(c1OC)c(=O)c1ccccc1n2C | – | > 100 µM | – | > 100 µM | – | > 100 µM | – | > 100 µM | – | > 100 µM | – | > 100 µM | – | > 100 µM | – | > 100 µM | – | > 100 µM | – | > 100 µM
Ic1ccccc1-c1ccccc1 | > 100 µM | > 100 µM | > 100 µM | > 100 µM | > 100 µM | > 100 µM | 13.2 µM | > 100 µM | > 100 µM | > 100 µM | > 100 µM | > 100 µM | > 100 µM | > 100 µM | > 100 µM | > 100 µM | > 100 µM | > 100 µM | > 100 µM | > 100 µM
C=C(CN1C(=O)[C@H]2CCCN2C(=O)c2ccccc21)c1ccc(C(=O)O)cc1 | > 100 µM | > 100 µM | > 100 µM | > 100 µM | > 100 µM | > 100 µM | > 100 µM | > 100 µM | > 100 µM | > 100 µM | > 100 µM | > 100 µM | > 100 µM | > 100 µM | > 100 µM | > 100 µM | > 100 µM | > 100 µM | > 100 µM | > 100 µM
Cc1cc2nc3c4cc(N)ccc4n(CCN(C)C)c3nc2cc1C | 0.45 µM | 6.14 µM | 0.408 µM | 5.27 µM | 0.499 µM | 10.2 µM | 0.527 µM | 5.05 µM | 1.12 µM | 2.88 µM | 0.501 µM | 9.95 µM | 1.43 µM | 6.89 µM | 0.705 µM | 4.03 µM | 2.08 µM | 5.77 µM | 0.381 µM | 10.9 µM
CC1(C)N=C(N)N=C(N)N1c1ccc(OCCCCOc2ccc(S(=O)(=O)F)cc2)c(Cl)c1 | 0.0826 µM | 14.8 µM | 0.137 µM | 15.5 µM | 1.12 µM | > 100 µM | 0.671 µM | 10.9 µM | 0.116 µM | 15.3 µM | 71.6 µM | > 100 µM | 0.076 µM | 16.4 µM | 0.286 µM | 11.5 µM | 0.559 µM | 28.8 µM | 0.0379 µM | 14 µM
COc1ncc(-c2ccc3nccc(-c4ccnnc4)c3c2)cc1NS(=O)(=O)c1ccc(F)cc1F | 0.00882 µM and < 0.01 µM | 1.49 µM and 1.32 µM | 0.00561 µM and < 0.01 µM | 0.542 µM and 0.257 µM | 0.00632 µM and < 0.01 µM | > 4.83 µM and 5.11 µM | 0.00109 µM and < 0.01 µM | 0.00872 µM and < 0.01 µM | 0.013 µM and < 0.01 µM | 0.794 µM and 0.485 µM | 0.0228 µM and 0.0246 µM | > 8.81 µM and 4.37 µM | 0.0127 µM and 0.0148 µM | > 10 µM and 9.23 µM | 0.00537 µM and < 0.01 µM | 0.0595 µM and 0.0299 µM | 0.00213 µM and < 0.01 µM | 0.0395 µM and 0.36 µM | 0.0151 µM and 0.0225 µM | > 4.47 µM and 1.92 µM
O=C1c2cc3c(cc2-c2c1c1ccc(Cl)cc1c(=O)n2CCCNCCO)OCO3 | 0.115 µM | 2.38 µM | 1.09 µM | 2.6 µM | 0.677 µM | 2.25 µM | 1.08 µM | 2.57 µM | 0.0574 µM | 1.67 µM | 0.0585 µM | 1.9 µM | 0.0668 µM | 2.13 µM | 0.0378 µM | 1.38 µM | 1.43 µM | 3.26 µM | 0.0506 µM | 0.366 µM
CC(C)(O)CS(=O)(=O)Nc1ccc2c(c1)CCN(C(=O)COc1cccnc1)C2 | > 100 µM | > 100 µM | 0.141 µM | > 100 µM | 0.476 µM | > 100 µM | 97.5 µM | > 100 µM | 0.153 µM | > 100 µM | 1.47 µM | > 100 µM | > 100 µM | > 100 µM | > 61.6 µM | > 100 µM | > 100 µM | > 100 µM | 0.0495 µM | > 100 µM
O=C1C(=O)c2ccccc2C(O)=C1CC=C(Br)Br | 2.82 µM | 62.2 µM | 10.3 µM | 24.5 µM | 0.368 µM | > 100 µM | 12.5 µM | 76.4 µM | 7.38 µM | 55.4 µM | 5.33 µM | 87.3 µM | 2.66 µM | > 100 µM | 3.29 µM | > 100 µM | 12.8 µM | > 100 µM | 3.07 µM | > 100 µM
c1ccc2[nH]c(-c3ccc(NN=Nc4ccncc4)cc3)nc2c1 | > 100 µM | > 100 µM | 27 µM | > 100 µM | 17.7 µM | > 100 µM | 91.5 µM | > 100 µM | > 100 µM | > 100 µM | > 100 µM | > 100 µM | 4.81 µM | 74.4 µM | 16.4 µM | > 100 µM | 16.6 µM | 51.6 µM | 49.7 µM | > 100 µM
CC(=O)[C@@]1(O)CC[C@H]2[C@@H]3C[C@H](C)C4=CC(=O)CC[C@]4(C)[C@H]3[C@@H](O)C[C@@]21C | – | > 100 µM | – | > 100 µM | – | > 100 µM | – | > 100 µM | – | > 100 µM | – | > 100 µM | – | > 100 µM | – | > 100 µM | – | > 100 µM | – | > 100 µM
O=C(/C=C/c1cccnc1)NCCCCC1CCCN(C(=O)c2ccccc2)C1 (centres undefined) | 0.0752 µM | > 100 µM | 0.75 µM | > 100 µM | < 0.01 µM | > 100 µM | > 100 µM | > 100 µM | < 0.01 µM | > 100 µM | 0.0103 µM | > 100 µM | > 28.4 µM | > 100 µM | < 0.0474 µM | > 87.1 µM | > 100 µM | > 100 µM | < 0.01 µM | > 100 µM
